The source of these data is patent US20240091195A1 (SANWA KAGAKU KENKYUSHO CO., LTD., priority 2021, published 2024).

Data set [1] relates to rat pilocarpine-induced salivary secretion model. The data set can be described thus: Pilocarpine-induced salivary secretion, 0.25 cm^2 transdermal absorptive preparations (Test Example 3). The settings on record: 0.25 cm^2 applied to neck once a day, pilocarpine hydrochloride 0.5 mg/kg i.v.
Data set [2] shares this test system. The data set can be described thus: Pilocarpine-induced salivary secretion, 0.5 cm^2 transdermal absorptive preparations (Test Example 2). The class given is in vivo, Hairless rats (HWY/Slc). The following applies: 0.5 cm^2 applied to neck once a day, pilocarpine hydrochloride 0.5 mg/kg i.v., n=5. How it is done:
Under isoflurane anesthesia, 0.5 cm^2 of each of the transdermal absorptive preparations (including a placebo preparation) containing various glycopyrronium salts produced in accordance with Preparation Production Example 1, Comparative Preparation Production Examples 2 and 4, and Reference Preparation Production Example 1 was applied to the necks of the rats once a day every 24 hours for 2 days.
The amount of saliva secreted was calculated from the difference between the weights of the cotton ball before and after collection of saliva, and taking the average value of the amount of saliva secreted of the placebo group as 100%, the salivary secretion proportion of each individual was calculated from the following (equation).

The conditions of data set [3]: dissolved in ethanol, stability after 24 hours.

Regarding `C[N+]1(C)CCC(OC(=O)C(O)(c2ccccc2)C2CCCC2)C1.O=C([O-])CNC(=O)c1ccccc1` (racemic) [Glycopyrronium hippurate, (3RS, 2SR)-glycopyrronium hippurate], the results for the “salivary secretion suppressive effect compared with placebo group” value in data set [1] (Day 1 of application), in data set [1] (Day 2 of application) and in data set [2] (Day 1 of application (23 hours after first application)) were “significant effect”, “significant effect only on Day 1 of application” and “significant salivary secretion suppressive effects”, respectively.
In turn, `C[N+]1(C)CCC(OC(=O)C(O)(c2ccccc2)C2CCCC2)C1.O=C([O-])c1ccccc1` (stereo not drawn) [Glycopyrronium benzoate, glycopyrronium benzoate] showed a decomposition in ethanol in data set [3] of 10%.
As to `C[N+]1(C)CCC(OC(=O)C(O)(c2ccccc2)C2CCCC2)C1` (stereo not drawn) [Glycopyrronium bromide, (3RS, 2SR)-glycopyrronium bromide], the “salivary secretion suppressive effect compared with placebo group” value in data set [1] (Day 1 of application, listed as glycopyrronium bromide) is listed as “did not show any significant effect”; in data set [1] (Day 2 of application, listed as glycopyrronium bromide), “did not show any significant effect”; in data set [2] (Day 1 of application (23 hours after first application), listed as glycopyrronium-bromide), “no significant effect”.
On to `C[N+]1(C)CCC(OC(=O)C(O)(c2ccccc2)C2CCCC2)C1` (stereo not drawn) [Glycopyrronium salicylate, 3-(2-cyclopentyl-2-hydroxy-2-phenylacetoxy)-1,1-dimethylpyrrolidium salicylate], for which the “salivary secretion suppressive effect compared with placebo group” value in data set [1] (Day 1 of application, listed as glycopyrronium salicylate) was “strongest and significant salivary secretion suppressive effect”; in data set [1] (Day 2 of application, listed as glycopyrronium salicylate), “strongest and significant salivary secretion suppressive effect”; in data set [2] (Day 1 of application (23 hours after first application), listed as glycopyrronium salicylate), “significant salivary secretion suppressive effects”; in data set [2] (Day 2 of application (47 hours after first application)) it was “strongest salivary secretion suppressive effect”.
For the compound Glycopyrronium acetate, the decomposition in ethanol in data set [3] is reported as 20%.
